Reference: ChEMBL document CHEMBL5223082, “Alkyl-Aryl-Vancomycins: Multimodal Glycopeptides with Weak Dependence on the Bacterial Metabolic State” (J Med Chem, 2021)
In brackets after ≈: the same amount, converted by molar mass. Activity calls are given as the source filed them. The rule behind the calls is not given here.

What was measured:
[1] = tested on: Staphylococcus aureus; experiment: Antibacterial activity against Methicillin-resistant Staphylococcus aureus ATCC 33591 assessed as inhibition of bacterial growth incubated for 18 to 24 hrs by CLSI microbroth dilution method; format: functional; conditions: time 18-24 hrs
[2] = tested on: Staphylococcus aureus; experiment: Antibacterial activity against Vancomycin-resistant Staphylococcus aureus 1 assessed as inhibition of bacterial growth incubated for 18 to 24 hrs by CLSI microbroth dilution method; format: functional; conditions: time 18-24 hrs
[3] = tested on: Staphylococcus aureus; experiment: Antibacterial activity against Vancomycin-resistant Staphylococcus aureus 4 assessed as inhibition of bacterial growth incubated for 18 to 24 hrs by CLSI microbroth dilution method; format: functional; conditions: time 18-24 hrs
[4] = tested on: Staphylococcus aureus; experiment: Antibacterial activity against Vancomycin-resistant Staphylococcus aureus 12 assessed as inhibition of bacterial growth incubated for 18 to 24 hrs by CLSI microbroth dilution method; format: functional; conditions: time 18-24 hrs
[5] = tested on: Enterococcus; experiment: Antibacterial activity against Vancomycin-resistant Enterococci NR30903 assessed as inhibition of bacterial growth incubated for 18 to 24 hrs by CLSI microbroth dilution method; format: functional; conditions: time 18-24 hrs
[6] = tested on: Enterococcus; experiment: Antibacterial activity against Vancomycin-resistant Enterococci NR30909 assessed as inhibition of bacterial growth incubated for 18 to 24 hrs by CLSI microbroth dilution method; format: functional; conditions: time 18-24 hrs
[7] = tested on: Enterococcus; experiment: Antibacterial activity against Vancomycin-resistant Enterococci ATCC 51575 assessed as inhibition of bacterial growth incubated for 18 to 24 hrs by CLSI microbroth dilution method; format: functional; conditions: time 18-24 hrs
[8] = tested on: Enterococcus; experiment: Antibacterial activity against Vancomycin-resistant Enterococci ATCC 51559 assessed as inhibition of bacterial growth incubated for 18 to 24 hrs by CLSI microbroth dilution method; format: functional; conditions: time 18-24 hrs
[9] = tested on: Staphylococcus aureus; experiment: Potency index, ratio of Vancomycin MIC to test compound MIC for antibacterial activity against Vancomycin-resistant Staphylococcus aureus 1; format: functional
[10] = tested on: Staphylococcus aureus; experiment: Potency index, ratio of Vancomycin MIC to test compound MIC for antibacterial activity against Vancomycin-resistant Staphylococcus aureus 4; format: functional
[11] = tested on: Staphylococcus aureus; experiment: Potency index, ratio of Vancomycin MIC to test compound MIC for antibacterial activity against Vancomycin-resistant Staphylococcus aureus 12; format: functional
[12] = tested on: Enterococcus; experiment: Potency index, ratio of Vancomycin MIC to test compound MIC for antibacterial activity against Vancomycin-resistant Enterococci NR30903; format: functional, NR 30903
[13] = tested on: Enterococcus; experiment: Potency index, ratio of Vancomycin MIC to test compound MIC for antibacterial activity against Vancomycin-resistant Enterococci NR30909; format: functional, NR 30909
[14] = tested on: Enterococcus; experiment: Potency index, ratio of Vancomycin MIC to test compound MIC for antibacterial activity against Vancomycin-resistant Enterococci ATCC 51575; format: functional
[15] = tested on: Enterococcus; experiment: Potency index, ratio of Vancomycin MIC to test compound MIC for antibacterial activity against Vancomycin-resistant Enterococci ATCC 51559; format: functional
[16] = Induction of hemolysis in human erythrocytes incubated for 1 hr by microtiter plater reader analysis; format: toxicity, cell-based, Erythrocyte
[17] = Induction of hemolysis in human erythrocytes at 250 uM incubated for 1 hr by microtiter plater reader analysis; format: toxicity, cell-based, Erythrocyte; conditions: read-out: Activity
[18] = tested on: Staphylococcus aureus; experiment: Potency index, ratio of Vancomycin MIC to test compound MIC for antibacterial activity against Methicillin-resistant Staphylococcus aureus ATCC 33591; format: functional
[19] = tested on: Staphylococcus aureus; experiment: Antibacterial activity against Methicillin-resistant Staphylococcus aureus ATCC 33591 assessed as log reduction in bacterial colonies at 10XMIC incubated for 1 hr in broth solution followed by plating on nutrient agar plate; format: functional
[20] = tested on: Staphylococcus aureus; experiment: Bactericidal activity against methicillin-resistant Staphylococcus aureus ATCC 33591 assessed as reduction in bacterial colonies at MIC to 8XMIC incubated for 6 hrs in broth solution followed by culturing for 24 hrs on agar plate by spot plating method; format: functional, organism-based; conditions: time 30.0 hrs
[21] = tested on: Staphylococcus aureus; experiment: Antibacterial activity against Methicillin-resistant Staphylococcus aureus ATCC 33591 assessed as inhibition of bacterial growth preincubated compound with N,N'-diacetyl-L-Lys-D-Ala-D-Ala for 10 mins followed by incubation with bacterial culture for 18 to 24 hrs by CLSI microbroth dilution method; format: functional; conditions: time 1090-1450 min
[22] = tested on: Staphylococcus aureus; experiment: Ratio of MIC for antibacterial activity against Methicillin-resistant Staphylococcus aureus ATCC 33591 in presence of N,N'-diacetyl-L-Lys-D-Ala-D-Ala to MIC for antibacterial activity against Methicillin-resistant Staphylococcus aureus ATCC 33591; format: functional
[23] = tested on: Staphylococcus aureus; experiment: Antibacterial activity against Methicillin-resistant Staphylococcus aureus ATCC 33591 assessed as inhibition of bacterial growth preincubated compound with teichoic-acid for 1 hr followed by incubation with bacterial culture for 18 to 24 hrs by CLSI microbroth dilution method; format: functional; conditions: time 19-25 hrs
[24] = tested on: Cell membrane; experiment: Induction of cytoplasmic membrane depolarization in Methicillin-resistant Staphylococcus aureus ATCC 33591 assessed as increase in fluorescence intensity at 10 uM measured for 35 to 40 mins by DiSC3(5) dye based fluorescence analysis; format: subcellular; conditions: time 35-40 min
[25] = tested on: Cell membrane; experiment: Induction of cytoplasmic membrane depolarization in Bacillus subtilis assessed as increase in fluorescence intensity at 10 uM measured for 35 to 40 mins by DiSC3(5) dye based fluorescence analysis; format: subcellular; conditions: time 35-40 min
[26] = tested on: Cell membrane; experiment: Induction of cytoplasmic membrane depolarization in Vancomycin-resistant Enterococci assessed as increase in fluorescence intensity at 10 uM measured for 35 to 40 mins by DiSC3(5) dye based fluorescence analysis; format: subcellular; conditions: Enterococcus, time 35-40 min
[27] = tested on: Bacillus subtilis; experiment: Antibacterial activity against Bacillus subtilis 168 assessed as concentration that requires for bacterial growth retardation measured for every 30 mins; format: functional
[28] = tested on: Bacillus subtilis; experiment: Inhibition of cell wall biosynthesis in Bacillus subtilis 168 assessed as bubble-like formation on bacterial cell surface at PEC incubated for 15 mins by light microscopic analysis; format: functional, organism-based
[29] = target: T1, Septum site-determining protein MinD (Bacillus subtilis (strain 168)) (UniProt Q01464); experiment: Delocalization of GFP tagged-MinD in Bacillus subtilis 168 at PEC incubated for 15 mins by fluorescence microscopy
T1 sequence (whole entry): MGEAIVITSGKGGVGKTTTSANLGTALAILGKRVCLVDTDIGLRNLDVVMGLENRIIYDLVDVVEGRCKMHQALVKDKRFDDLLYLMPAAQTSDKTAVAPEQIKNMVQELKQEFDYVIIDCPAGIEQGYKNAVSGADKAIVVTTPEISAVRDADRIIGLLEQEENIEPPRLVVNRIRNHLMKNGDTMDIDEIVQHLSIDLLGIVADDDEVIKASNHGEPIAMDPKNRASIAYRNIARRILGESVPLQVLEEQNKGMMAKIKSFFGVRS

[30] = tested on: Staphylococcus aureus; experiment: Antibacterial activity against Methicillin-resistant Staphylococcus aureus ATCC 33591 persister cells assessed as reduction in bacterial colonies at 40 uM incubated for 24 hrs in broth solution followed by incubation on agar plate for 48 hrs by spot plating method; format: functional, organism-based; conditions: time 72.0 hrs
[31] = tested on: Staphylococcus aureus; experiment: Antibiofilm activity against Methicillin-resistant Staphylococcus aureus ATCC 33591 assessed as log reduction in bacterial viability within the biofilms at 20 uM incubated for 24 hrs in broth solution followed by culturing on agar plate for 24 hrs by spot plating method; format: functional; conditions: time 48 hrs
[32] = tested on: Staphylococcus aureus; experiment: Antibiofilm activity against Methicillin-resistant Staphylococcus aureus ATCC 33591 assessed as bacterial biofilm thickness at 20 uM incubated for 24 hrs by confocal laser scanning microscopy (reference value: 8 micrometer); format: functional
[33] = tested on: Staphylococcus aureus; experiment: Antibacterial activity against Methicillin-resistant Staphylococcus aureus ATCC 33591 assessed as time duration of post-antibiotic effect for suppression of bacterial growth at 10XMIC incubated for 1 hr in broth solution followed by washing for drug removal and subsequent plating on nutrient agar plate; format: functional
[34] = tested on: Staphylococcus aureus; experiment: Ratio of MIC for antibacterial activity against Methicillin-resistant Staphylococcus aureus ATCC 33591 measured after 27 passages to MIC for antibacterial activity against Methicillin-resistant Staphylococcus aureus ATCC 33591 measured after 18 to 24 hrs incubation; format: functional

SMILES	MIC [1]	MIC [2]	MIC [3]	MIC [4]	MIC [5]	MIC [6]	MIC [7]	MIC [8]	Ratio [9]	Ratio [10]	Ratio [11]	Ratio [12]	Ratio [13]	Ratio [14]	Ratio [15]	HC50 at 1 h [16]	hemolysis at 1 h, 250 µM [17]	Ratio [18]	further results
CN[C@H](CC(C)C)C(=O)N[C@H]1C(=O)N[C@@H](CC(N)=O)C(=O)N[C@H]2C(=O)N[C@H]3C(=O)N[C@H](C(=O)N[C@H](C(=O)O)c4cc(O)cc(O)c4-c4cc3ccc4O)[C@H](O)c3ccc(c(Cl)c3)Oc3cc2cc(c3O[C@@H]2O[C@H](CO)[C@@H](O)[C@H](O)[C@H]2O[C@H]2C[C@](C)(NCc3ccc(C(=O)NCCC[N+](C)(C)Cc4ccc(-c5ccccc5)cc4)cc3)[C@H](O)[C@H](C)O2)Oc2ccc(cc2Cl)[C@H]1O	0.5 µM	7.3 µM	7.3 µM	3.7 µM	7.3 µM	3.7 µM	14.7 µM	14.7 µM	47	47	47	47	47	47	47	> 250 µM	0%	–	–
CCCCCCCCNC(=O)c1ccc(CN[C@@]2(C)C[C@H](O[C@H]3[C@H](Oc4c5cc6cc4Oc4ccc(cc4Cl)[C@@H](O)[C@@H](NC(=O)[C@@H](CC(C)C)NC)C(=O)N[C@@H](CC(N)=O)C(=O)N[C@H]6C(=O)N[C@H]4C(=O)N[C@H](C(=O)N[C@H](C(=O)O)c6cc(O)cc(O)c6-c6cc4ccc6O)[C@H](O)c4ccc(c(Cl)c4)O5)O[C@H](CO)[C@@H](O)[C@@H]3O)O[C@@H](C)[C@H]2O)cc1	1 µM (≈ 1.69 µg/mL)	4.2 µM (≈ 7.12 µg/mL)	2.1 µM (≈ 3.56 µg/mL)	0.3 µM (≈ 0.508 µg/mL)	4.2 µM (≈ 7.12 µg/mL)	2.1 µM (≈ 3.56 µg/mL)	1 µM (≈ 1.69 µg/mL)	8.3 µM (≈ 14.1 µg/mL)	166	166	166	166	166	166	166	> 250 µM	–	2	–
CN[C@H](CC(C)C)C(=O)N[C@H]1C(=O)N[C@@H](CC(N)=O)C(=O)N[C@H]2C(=O)N[C@H]3C(=O)N[C@H](C(=O)N[C@H](C(=O)O)c4cc(O)cc(O)c4-c4cc3ccc4O)[C@H](O)c3ccc(c(Cl)c3)Oc3cc2cc(c3O[C@@H]2O[C@H](CO)[C@@H](O)[C@H](O)[C@H]2O[C@H]2C[C@](C)(N)[C@H](O)[C@H](C)O2)Oc2ccc(cc2Cl)[C@H]1O [VANCOMYCIN]	0.6 µM (≈ 0.87 µg/mL)	346 µM (≈ 501 µg/mL)	346 µM (≈ 501 µg/mL)	346 µM (≈ 501 µg/mL)	692 µM (≈ 1000 µg/mL)	346 µM (≈ 501 µg/mL)	346 µM (≈ 501 µg/mL)	1380 µM (≈ 2010 µg/mL)	–	–	–	–	–	–	–	–	–	–	Activity [19]: 0.5 log10CFU/ml; Activity [20]: Active; MIC [21]: > 30 µM; Ratio [22]: >40; MIC [23]: 0.6 µM (≈ 0.87 µg/mL); Activity [24]: inactive; Activity [25]: inactive; Activity [26]: inactive; EC [27]: 0.4 µM; inhibition [28]: Active; Activity [29]: inactive; Activity [30]: inactive; Activity [31]: 0.9 log10CFU/ml; Activity [32]: 7 um; Time [33]: 6 h; Ratio [34]: 2
CCCCCCNC(=O)C[N+](C)(C)CCCNC(=O)c1ccc(CN[C@@]2(C)C[C@H](O[C@H]3[C@H](Oc4c5cc6cc4Oc4ccc(cc4Cl)[C@@H](O)[C@@H](NC(=O)[C@@H](CC(C)C)NC)C(=O)N[C@@H](CC(N)=O)C(=O)N[C@H]6C(=O)N[C@H]4C(=O)N[C@H](C(=O)N[C@H](C(=O)O)c6cc(O)cc(O)c6-c6cc4ccc6O)[C@H](O)c4ccc(c(Cl)c4)O5)O[C@H](CO)[C@@H](O)[C@@H]3O)O[C@@H](C)[C@H]2O)cc1	0.4 µM	14.9 µM	29.8 µM	7.4 µM	7.4 µM	14.9 µM	> 30 µM	> 30 µM	10	10	10	10	10	10	10	> 250 µM	1%	2	–
